Experimental data taken from ChEMBL document CHEMBL5036347, “Design of the naphthyl-diarylpyrimidines as potent non-nucleoside reverse transcriptase inhibitors (NNRTIs) via structure-based extension into the entrance channel” (Eur J Med Chem, 2021).

test system: Human immunodeficiency virus 1; experiment: Anti-HIV activity against HIV-1 IIIB infected in human MT4 cells assessed as reduction in virus-induced cytopathic effect incubated for 5 days by MTT assay; format: functional, organism-based; conditions: Human immunodeficiency virus 1, IIIB, MT4, 120 h

Q: With `COc1cc2cc(C#N)ccc2c(OC)c1Oc1cc(NCC2CCOC2)nc(Nc2ccc(C#N)cc2)n1` (centres undefined) as the compound, how does the EC50 read?
A: 19 nM

test system: Human immunodeficiency virus 2; experiment: Anti-HIV activity against HIV2 ROD infected in human MT4 cells assessed as reduction in virus-induced cytopathic effect incubated for 5 days by MTT assay; format: functional, organism-based; conditions: Human immunodeficiency virus 2, ROD, MT4, 120 h

Q: With `COc1cc2cc(C#N)ccc2c(OC)c1Oc1cc(NCC2CCOC2)nc(Nc2ccc(C#N)cc2)n1` (centres undefined) as the compound, how does the EC50 read?
A: > 1 mM

test system: not listed separately; experiment: Cytotoxicity against human MT4 cells assessed as reduction in cell viability incubated for 5 days by MTT assay; format: cell-based; conditions: human, MT4 cells; time 5 day

Q: Which CC50 at 120 h does the source give for `COc1cc2cc(C#N)ccc2c(OC)c1Oc1cc(NCC2CCOC2)nc(Nc2ccc(C#N)cc2)n1` (centres undefined) here?
A: > 125 µM

test system: Human immunodeficiency virus 1; experiment: Antiviral activity against HIV1 harboring reverse transcriptase L100I mutant infected in human MT4 cells assessed as protection against virus-induced cytopathic effect incubated for 5 days by MTT assay; format: functional, organism-based; conditions: Human immunodeficiency virus 1, MT4, 120 h

Q: With `COc1cc2cc(C#N)ccc2c(OC)c1Oc1cc(NCC2CCOC2)nc(Nc2ccc(C#N)cc2)n1` (centres undefined) as the compound, how does the EC50 read?
A: 370 nM

test system: Human immunodeficiency virus 1; experiment: Antiviral activity against HIV1 harboring reverse transcriptase K103N mutant infected in human MT4 cells assessed as protection against virus-induced cytopathic effect incubated for 5 days by MTT assay; format: functional, organism-based; conditions: Human immunodeficiency virus 1, MT4, 120 h

Q: For `COc1cc2cc(C#N)ccc2c(OC)c1Oc1cc(NCC2CCOC2)nc(Nc2ccc(C#N)cc2)n1` (centres undefined), which EC50 is on record?
A: 16 nM

test system: Human immunodeficiency virus 1; experiment: Antiviral activity against HIV1 harboring reverse transcriptase Y181C mutant infected in human MT4 cells assessed as protection against virus-induced cytopathic effect incubated for 5 days by MTT assay; format: functional, organism-based; conditions: Human immunodeficiency virus 1, MT4, 120 h

Q: Which EC50 does the source give for `COc1cc2cc(C#N)ccc2c(OC)c1Oc1cc(NCC2CCOC2)nc(Nc2ccc(C#N)cc2)n1` (centres undefined) here?
A: 170 nM

test system: Human immunodeficiency virus 1; experiment: Antiviral activity against HIV1 harboring reverse transcriptase Y188L mutant infected in human MT4 cells assessed as protection against virus-induced cytopathic effect incubated for 5 days by MTT assay; format: functional, organism-based; conditions: Human immunodeficiency virus 1, MT4, 120 h

Q: For `COc1cc2cc(C#N)ccc2c(OC)c1Oc1cc(NCC2CCOC2)nc(Nc2ccc(C#N)cc2)n1` (centres undefined), which EC50 is on record?
A: 670 nM

test system: Human immunodeficiency virus 1; experiment: Antiviral activity against HIV1 harboring reverse transcriptase E138K mutant infected in human MT4 cells assessed as protection against virus-induced cytopathic effect incubated for 5 days by MTT assay; format: functional, organism-based; conditions: Human immunodeficiency virus 1, MT4, 120 h

Q: Which EC50 does the source give for `COc1cc2cc(C#N)ccc2c(OC)c1Oc1cc(NCC2CCOC2)nc(Nc2ccc(C#N)cc2)n1` (centres undefined) here?
A: 47 nM

test system: Human immunodeficiency virus 1; experiment: Antiviral activity against HIV1 harboring reverse transcriptase F227L/V106A mutant infected in human MT4 cells assessed as protection against virus-induced cytopathic effect incubated for 5 days by MTT assay; format: functional, organism-based; conditions: Human immunodeficiency virus 1, MT4, 120 h

Q: Which EC50 does the source give for `COc1cc2cc(C#N)ccc2c(OC)c1Oc1cc(NCC2CCOC2)nc(Nc2ccc(C#N)cc2)n1` (centres undefined) here?
A: 7.78 µM

test system: not listed separately; experiment: Resistance fold, ratio of EC50 for HIV1 harboring reverse transcriptase Y181C mutant […] to EC50 for wild type HIV1 […]; format: functional; conditions: not given

Q: Which “Ratio EC50” value does the source give for `COc1cc2cc(C#N)ccc2c(OC)c1Oc1cc(NCC2CCOC2)nc(Nc2ccc(C#N)cc2)n1` (centres undefined) here?
A: 9

test system: not listed separately; experiment: Resistance fold, ratio of EC50 for HIV1 harboring reverse transcriptase L100I mutant […] to EC50 for wild type HIV1 […]; format: functional; conditions: not given

Q: For `COc1cc2cc(C#N)ccc2c(OC)c1Oc1cc(NCC2CCOC2)nc(Nc2ccc(C#N)cc2)n1` (centres undefined), which “Ratio EC50” value is on record?
A: 22

test system: not listed separately; experiment: Resistance fold, ratio of EC50 for HIV1 harboring reverse transcriptase K103N mutant […] to EC50 for wild type HIV1 […]; format: functional; conditions: not given

Q: Which “Ratio EC50” value does the source give for `COc1cc2cc(C#N)ccc2c(OC)c1Oc1cc(NCC2CCOC2)nc(Nc2ccc(C#N)cc2)n1` (centres undefined) here?
A: 1

test system: Human immunodeficiency virus 1; experiment: Antiviral activity against HIV1 harboring reverse transcriptase K103N/Y181C double mutant infected in human MT4 cells assessed as protection against virus-induced cytopathic effect incubated for 5 days by MTT assay; format: functional, organism-based; conditions: Human immunodeficiency virus 1, MT4, 120 h

Q: With `COc1cc2cc(C#N)ccc2c(OC)c1Oc1cc(NCC2CCOC2)nc(Nc2ccc(C#N)cc2)n1` (centres undefined) as the compound, how does the EC50 read?
A: 680 nM

test system: not listed separately; experiment: Selectivity index, ratio of CC50 for cytotoxicity against human MT4 cells to EC50 of Anti-HIV activity against HIV-1 IIIB infected in human MT4; format: toxicity, cell-based; conditions: read-out: Selectivity Index

Q: For `COc1cc2cc(C#N)ccc2c(OC)c1Oc1cc(NCC2CCOC2)nc(Nc2ccc(C#N)cc2)n1` (centres undefined), which selectivity ratio is on record?
A: > 12500

test system: not listed separately; experiment: Resistance fold, ratio of EC50 for HIV1 harboring reverse transcriptase Y188L mutant […] to EC50 for wild type HIV1 […]; format: functional; conditions: not given

Q: Which “Ratio EC50” value does the source give for `COc1cc2cc(C#N)ccc2c(OC)c1Oc1cc(NCC2CCOC2)nc(Nc2ccc(C#N)cc2)n1` (centres undefined) here?
A: 35

test system: not listed separately; experiment: Resistance fold, ratio of EC50 for HIV1 harboring reverse transcriptase E138K mutant […] to EC50 for wild type HIV1 […]; format: functional; conditions: not given

Q: With `COc1cc2cc(C#N)ccc2c(OC)c1Oc1cc(NCC2CCOC2)nc(Nc2ccc(C#N)cc2)n1` (centres undefined) as the compound, how does the “Ratio EC50” value read?
A: 2

test system: not listed separately; experiment: Resistance fold, ratio of EC50 for HIV1 harboring reverse transcriptase F227L/V106A double mutant […] to EC50 for wild type HIV1 […]; format: functional; conditions: not given

Q: With `COc1cc2cc(C#N)ccc2c(OC)c1Oc1cc(NCC2CCOC2)nc(Nc2ccc(C#N)cc2)n1` (centres undefined) as the compound, how does the “Ratio EC50” value read?
A: 410

test system: not listed separately; experiment: Resistance fold, ratio of EC50 for HIV1 harboring reverse transcriptase K103N/Y181C double mutant […] to EC50 for wild type HIV1 […]; format: functional; conditions: not given

Q: For `COc1cc2cc(C#N)ccc2c(OC)c1Oc1cc(NCC2CCOC2)nc(Nc2ccc(C#N)cc2)n1` (centres undefined), which “Ratio EC50” value is on record?
A: 36

molecular target: Human immunodeficiency virus type 1 reverse transcriptase (Human immunodeficiency virus 1, UniProt Q72547); experiment: Inhibition of wild type HIV1 reverse transcriptase using oligo(dT)16 as primer measured after 40 mins by picogreen-dye based spectrofluorimetric analysis; conditions: not given

Q: With `COc1cc2cc(C#N)ccc2c(OC)c1Oc1cc(NCC2CCOC2)nc(Nc2ccc(C#N)cc2)n1` (centres undefined) as the compound, how does the IC50 read?
A: 60 nM
